The subject of test [1] is proton-translocating membrane ATPases of oral streptococci. The settings on record: cited from earlier work.
The conditions of test [2]: famotidine 40 mg per day, sublingual vs p.o. vs no treatment, 3 weeks each; pH 1, 2, 3 hours after a meal and at wakeup; preliminary results. As to the method:
An ongoing study is now being carried out on healthy young (25-40 years old) volunteers. The oral cavity pH is measured 1, 2, and 3 hours after a meal and at wakeup in the morning. These measurements are done daily for each participant, 3 weeks without treatment, 3 weeks under sublingual famotidine (40 mg per day), and 3 weeks under p.o. famotidine (40 mg per day).

Test [3] concerns male participants suffering from gingivitis. Nature of the test: Loe Silness gingival index (GI) in participants suffering from gingivitis. Type of test: in vivo, human. As to the method: Twelve male participants (24-42 years old) suffering from gingivitis were divided into 4 groups. Participants of the first group (No.=3) were treated by conventional oral hygiene procedures, including mechanical procedures and usage of mouthwash preparations for 3 months. Participants of the second group (No. =3) were treated by swallowing tablet of Famotidine 40 mg, once daily at bed time, for 3 months. Participants of the third group (No.=3) were treated by sublingual tablet of Famotidine 40 mg, once daily at bed time, for 3 months. Participants of the fourth group (No.=3) were treated by sublingual tablet of Omeprazole 20 mg, once daily at bed time, for 3 months. All participants were screened for dental caries and treated accordingly.
Each participant was examined at recruitment and after then bi-weekly up to 3 months from recruitment (7 examinations for each participant). At each visit gingival index was determined using a standard Loe Silness gingival index (GI) chart, which is accessible at the following website: http://www.medal.org/sheets/ch9/gingival %20index %20Loe %20Silness.xls.
The GI scores of examination No.7 (at 3 months from recruitment) compared to GI scores at examination No.1 (at recruitment), were calculated as mean GI reduction for each group.

In test [4] the test system is -person suffering from accelerated cariogenicity and progressive gingivitis.
The mark [5] stands for this setting: Famotidine 40 mg per day, tablets swallowed, half year later.

With `C[C@@H]1O[C@@H](O[C@H]2C[C@@H](O)[C@]3(CO)[C@H]4[C@H](O)C[C@]5(C)[C@@H](C6=CC(=O)OC6)CC[C@]5(O)[C@@H]4CC[C@]3(O)C2)[C@H](O)[C@H](O)[C@H]1O` [ouabain], the “sensitivity of proton-translocating membrane ATPases to the inhibitor” value (shortened to “sensitivity … to the inhibitor”) in test [1] is “insensitive”.

Consider `NC(N)=Nc1nc(CSCCC(N)=NS(N)(=O)=O)cs1` [Famotidine], for which the “rank order of the highest oral cavity pH” value in test [2] is given as “Sublingual Famotidine treatment>p.o. Famotidine treatment>no treatment”. Moreover, in test [3] (sublingual tablet 40 mg once daily at bed time, 3 months vs recruitment (third group)), the “mean GI reduction” value is listed as 31%. For the same molecule, the “mean GI reduction” value in test [3] (swallowed tablet 40 mg once daily at bed time, 3 months vs recruitment (second group)) came out at 17.1%. Further, in test [4] (setting [5]), the epigastric symptoms entry is “relieved” and the symptoms of reflux result was “persisted”. Also, in test [4] (famotidine tablets taken sublingually instead of swallowed), the reflux symptoms entry is listed as “relieved”. The “new caries at twice a year dental follow-ups” value in test [4] (next 5 years under sublingual famotidine treatment) is given as “new caries were not detected”. Moreover, the gingivitis result in test [4] (sublingual famotidine, in the following months) is recorded as “improved dramatically”.

Consider `COc1ccc2[nH]c([S+]([O-])Cc3ncc(C)c(OC)c3C)nc2c1` (stereo not shown) [Omeprazole], for which the “mean GI reduction” value in test [3] (sublingual tablet 20 mg once daily at bed time, 3 months vs recruitment (fourth group)) came to 27.5%.

Turning to `C(=NC1CCCCC1)=NC1CCCCC1` [dicyclohexylcarbodiimide], the “sensitivity … to the inhibitor” value in test [1] is on record as “sensitive”.

With `[N-]=[N+]=[N-]` [azide], the “sensitivity … to the inhibitor” value in test [1] is on record as “sensitive”.

On to `[O]=[V]([O-])([O-])[O-]` [vanadate], for which the “sensitivity … to the inhibitor” value in test [1] was “insensitive”.

The record behind these values is patent publication US20050048113A1, “Composition and method for treatment or prevention of oral cavity disorders” (priority 2003, published 2005).
